Counter-ions that a name gives are not always drawn. ± gives the standard deviation of the averaged measurements.
System: HepaRG
Assay: LDH release cytotoxicity, % of total lysis control; higher = more cytotoxic
Details: 48 h
In short: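 Percent cytotoxicity was scaled between on-plate vehicle and total lysis controls, then averaged over duplicate wells. The cells were single-lot HepaRG on collagen I-coated 96-well plates, exposed for 48 h to eight-point half-log test chemical series topping at 100 µM in serum-free induction medium with 0.5% DMSO. Total lysis wells got 0.1% Triton X, and LDH in 50 µL spent medium was read as resorufin fluorescence (CytoTox-ONE, Tecan Safire).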

O=Cc1ccco1 [Furfural]
Details | LDH release cytotoxicity [%]
0.03162 µM | -1.57 ± 0.78
0.1 µM | -2.07 ± 1.7
0.3162278 µM | -2.64 ± 0.63
1 µM | -3.82 ± 2.1
3.16228 µM | -4.51 ± 0.77
10 µM | -0.135 ± 1.1
31.6228 µM | -0.567 ± 0.12
100 µM | 3.05 ± 1.1

O=c1c(-c2ccc(O)cc2)coc2cc(O)cc(O)c12 [Genistein]
Details | LDH release cytotoxicity [%]
0.03162 µM | -1.15 ± 0.87
0.1 µM | 0.689 ± 1.7
0.3162278 µM | -2.06 ± 0.49
1 µM | -1.48 ± 0.77
3.16228 µM | -1.52 ± 0.039
10 µM | -1.28 ± 0.36
31.6228 µM | -1.5 ± 0.3
100 µM | 1.33 ± 0.27

CN(C)c1ccc(C(=C2C=CC(=[N+](C)C)C=C2)c2ccc(N(C)C)cc2)cc1 [Gentian Violet]
Details | LDH release cytotoxicity [%]
0.03162 µM | -1.62 ± 0.081
0.1 µM | -2.46 ± 0.081
0.3162278 µM | -1.86 ± 0.074
1 µM | -1.96 ± 0.38
3.16228 µM | 6.76 ± 0.71
10 µM | 29.8 ± 0.12
31.6228 µM | 51.8 ± 0.8
100 µM | 54.6 ± 3.8

CC(C)=CCC/C(C)=C/CO [Geraniol]
Details | LDH release cytotoxicity [%]
0.03162 µM | -2.2 ± 0.9
0.1 µM | -2.89 ± 0.23
0.3162278 µM | -2.68 ± 0.32
1 µM | -2.72 ± 0.9
3.16228 µM | -2.26 ± 0.81
10 µM | -1.87 ± 0.88
31.6228 µM | -1.12 ± 0.87
100 µM | -0.773 ± 0.42

CC(=O)OCC=C(C)CCC=C(C)C [Geranyl acetate]
Details | LDH release cytotoxicity [%]
0.031623 µM | -1.3 ± 1.1
0.1 µM | -3.48 ± 2.1
0.316228 µM | -4.47 ± 1.1
1 µM | -4.04 ± 0.45
3.16228 µM | -4.04 ± 0.095
10 µM | -3.42 ± 0.49
31.6228 µM | -1.98 ± 0.24
100 µM | -0.423 ± 0.54

O=CCCCC=O [Glutaraldehyde]
Details | LDH release cytotoxicity [%]
0.03162 µM | -0.884 ± 0.62
0.1 µM | -1.62 ± 0.91
0.3162278 µM | -1.72 ± 0.78
1 µM | -1.74 ± 0.39
3.16228 µM | -1.11 ± 0.16
10 µM | -0.663 ± 0.23
31.6228 µM | -1.18 ± 0.084
100 µM | 0.174 ± 0.34

OCC(O)CO [Glycerol]
Details | LDH release cytotoxicity [%]
0.03162 µM | -1.51 ± 0.67
0.1 µM | -1.11 ± 0.27
0.3162278 µM | -1.56 ± 0.12
1 µM | -1.79 ± 0.27
3.16228 µM | -1.43 ± 0.14
10 µM | -1.14 ± 0.37
31.6228 µM | -0.926 ± 0.83
100 µM | -0.545 ± 0.22

OCC1CO1 (centres undefined) [Glycidol]
Details | LDH release cytotoxicity [%]
0.03162 µM | -0.883 ± 0.53
0.1 µM | -1.28 ± 0.094
0.3162278 µM | -0.409 ± 0.45
1 µM | -1.25 ± 0.47
3.16228 µM | -0.452 ± 0.0064
10 µM | -0.678 ± 0.18
31.6228 µM | -0.342 ± 0.43
100 µM | 1.57 ± 0.042

C[N+](C)(C)CC1CO1 (centres undefined) [Glycidyl trimethylammonium chloride]
Details | LDH release cytotoxicity [%]
0.03162 µM | -0.794 ± 0.83
0.1 µM | -0.64 ± 0.72
0.3162278 µM | -0.926 ± 0.041
1 µM | -1.32 ± 0.64
3.16228 µM | -1.48 ± 0.5
10 µM | -0.844 ± 0.16
31.6228 µM | -0.342 ± 0.33
100 µM | 0.366 ± 0.66

CCCCCCC(CCCCCCCCCCC(=O)OCC(COC(C)=O)OC(C)=O)OC(C)=O (centres undefined) [Grinstad Soft-N-Safe]
Details | LDH release cytotoxicity [%]
0.015811 µM | -1.88 ± 0.51
0.05 µM | -1.59 ± 1.3
0.158114 µM | -1.52 ± 1.4
0.5 µM | -1.93 ± 1.6
1.58114 µM | -2.07 ± 1.3
5 µM | -1.64 ± 1.7
15.8114 µM | -0.943 ± 1.3
50 µM | 1.04 ± 1.8

CCN(CC)C(=O)c1cc(S(=O)(=O)Cc2ccccc2)c(N2CCC(c3ccccc3)CC2)cc1N(CC)CCN(C)C [HMR1171 trifluoroacetate (1:1)]
Details | LDH release cytotoxicity [%]
0.01202 µM | 1.63 ± 0.27
0.038 µM | 0.671 ± 0.26
0.120167 µM | 0.671 ± 1.3
0.38 µM | -0.413 ± 1.6
1.20167 µM | -7.42 ± 1
3.8 µM | 9.34 ± 2.8
12.01666 µM | 1.9 ± 0.12
38 µM | 82.5 ± 8.2

OC12N=C(c3ccccc3)SC1Cc1cc(Cl)ccc12 (centres undefined) [HMR1426]
Details | LDH release cytotoxicity [%]
0.03162 µM | 0.113 ± 0.048
0.1 µM | -0.325 ± 2
0.3162278 µM | 2.01 ± 0.36
1 µM | 1.42 ± 1.4
3.16228 µM | 3.44 ± 0.72
10 µM | 4.43 ± 0.51
31.6228 µM | 3.89 ± 0.3
100 µM | 8.06 ± 0.31

O=C(CCCN1CCC(O)(c2ccc(Cl)cc2)CC1)c1ccc(F)cc1 [Haloperidol]
Details | LDH release cytotoxicity [%]
0.03162 µM | -1.32 ± 0.62
0.1 µM | -2.17 ± 0.32
0.3162278 µM | -1.58 ± 0.27
1 µM | -1.63 ± 0.15
3.16228 µM | -2.03 ± 0.68
10 µM | -1.44 ± 0.67
31.6228 µM | 4.34 ± 1.7
100 µM | 62.2 ± 7.4

ClC1=C(Cl)C2(Cl)C3C4OC4C(Cl)C3C1(Cl)C2(Cl)Cl (centres undefined) [Heptachlor epoxide B]
Details | LDH release cytotoxicity [%]
0.03162 µM | -4.87 ± 0.88
0.1 µM | -4.16 ± 0.083
0.3162278 µM | -4.44 ± 0.44
1 µM | -3.99 ± 0.81
3.16228 µM | -3.88 ± 0.66
10 µM | -3.4 ± 0.55
31.6228 µM | -3.14 ± 0.91
100 µM | -0.787 ± 0.59

ClC1=C(Cl)C2(Cl)C3C(Cl)C=CC3C1(Cl)C2(Cl)Cl (centres undefined) [Heptachlor]
Details | LDH release cytotoxicity [%]
0.031623 µM | 0.0329 ± 0.088
0.1 µM | -3.41 ± 1.6
0.316228 µM | -2.78 ± 0.4
1 µM | -2.89 ± 2.9
3.16228 µM | -2.85 ± 1.9
10 µM | -1.78 ± 2.6
31.6228 µM | -1.45 ± 2.4
100 µM | -0.326 ± 1.3

CCCCCCC(=O)O [Heptanoic acid]
Details | LDH release cytotoxicity [%]
0.03162 µM | -1.47 ± 0.29
0.1 µM | -1.55 ± 0.4
0.3162278 µM | -1.65 ± 0.77
1 µM | -1.97 ± 0.48
3.16228 µM | -1.6 ± 0.66
10 µM | -1.54 ± 0.79
31.6228 µM | -1.75 ± 0.26
100 µM | 0.197 ± 0.072

ClC1=C(Cl)C(Cl)(Cl)C(Cl)=C1Cl [Hexachlorocyclopentadiene]
Details | LDH release cytotoxicity [%]
0.031623 µM | -1.11 ± 2.6
0.1 µM | -0.0238 ± 0.36
0.316228 µM | -1.49 ± 0.55
1 µM | -1.14 ± 0.92
3.16228 µM | -0.83 ± 0.046
10 µM | -0.988 ± 0.15
31.6228 µM | -0.0453 ± 0.82
100 µM | 0.368 ± 1.3

CCCCC(O)(Cn1cncn1)c1ccc(Cl)cc1Cl (centres undefined) [Hexaconazole]
Details | LDH release cytotoxicity [%]
0.03162 µM | -0.998 ± 0.92
0.1 µM | -0.668 ± 1.4
0.3162278 µM | 0.00223 ± 0.062
1 µM | -0.913 ± 0.57
3.16228 µM | -0.0659 ± 0.044
10 µM | 0.28 ± 0.96
31.6228 µM | -0.401 ± 0.24
100 µM | 10.1 ± 1.3
